The results in this text go back to the METLIN SMRT retention time set (Domingo-Almenara et al. 2019).

A short description of this data set: gradient 5% acetonitrile 3 min, to 50% in 2 min, to 85% in 15 min, held 3 min, 100 µL/min. Particulars: column: Zorbax Extend-C18 2.1 x 50 mm; eluents: water / acetonitrile, 0.1% formic acid. The essentials:
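The mobile phases were water and acetonitrile, each with 0.1% formic acid, pumped at 100 μL/min through a Zorbax Extend-C18 column (2.1 × 50 mm, 1.8 μm). Pure standards were injected as mixtures of ~100 molecules and detected by a quadrupole time-of-flight mass spectrometer in positive and negative ionization mode. Retention time came from computationally picked adduct peaks, each inspected by hand.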
`CCC(C(=O)Nc1c(-c2ccc(F)cc2)nc2cc(C)ccn12)c1ccccc1` (stereo not given) displayed an RP-LC retention time of 745 s. As for `O=C(COc1ccc(Cl)cc1)N1CCN(c2cc(-c3ccccc3)[nH]n2)CC1`, the figure is 814 s; as for `Cn1cc(S(=O)(=O)N2CCC(C(=O)N3CCCCC3)CC2)cc1C(=O)N1CCCC1`, 688 s; as for `CC(C)CCNC(=O)c1ccc(Cn2c(C(F)(F)F)nc3cccnc32)cc1`, 905 s.

In turn, `O=S(=O)(c1cc(-c2nnc(-c3ccc(F)cc3)o2)ccc1Cl)N1CCCCC1` came in with an RP-LC retention time of 1190 s. Under `Cc1cccc(Nc2c(-c3ccc(O)cc3)nc3ncccn23)c1` stands 700 s; under `Cc1[nH]c(=O)[nH]c(=O)c1S(=O)(=O)N1CCCC1`, 583 s. As for `Cc1ccc2nc(-c3ccc(O)cc3)c(Nc3ccc(Cl)cc3)n2c1`, the figure is 671 s; as for `CC(C)NC(=O)CN1c2ccc(F)cc2-c2ccccc2S1(=O)=O`, 831 s; as for `COC(=O)c1cc(OCc2cccc(OC)c2)c2cc(OC)ccc2n1`, 901 s. In turn, `NS(=O)(=O)c1cccnc1Nc1ccc(F)c(Cl)c1` returned an RP-LC retention time of 879 s. `O=C(NCc1ccccc1Cl)C1c2ccccc2CCN1C(=O)C1CC1` (stereo not given) registered an RP-LC retention time of 881 s. Under `CCNC(=O)NC1CCN(C(=O)C2CCC2)C1` (stereo not given) stands 578 s. `Nc1ccc(CCN2CCN(c3cccc(C(F)(F)F)c3)CC2)cc1` showed an RP-LC retention time of 633 s. In turn, `COc1ccccc1Cc1noc(C2CN(C(=O)c3cncc(Br)c3)C2)n1` had an RP-LC retention time of 777 s. As for `COc1ccccc1-c1nc(SCC(=O)N2CCC(C(N)=O)CC2)n[nH]1`, the figure is 614 s; as for `COc1ccc(S(=O)(=O)NCCc2ccc(N3CCCC3)cc2)cc1OC`, 776 s; as for `CN(CCc1noc(COc2ccc(F)cc2)n1)C(=O)Nc1ccccc1`, 856 s. As to `O=C(Cc1nnc(-c2ccccc2)o1)N1CCSCC1`, the RP-LC retention time was 698 s. Under `Cn1c(C(=O)NCc2ccccc2)cc2sc(Cl)cc21` stands 1060 s; under `CC12CC(c3ccccc3O1)C(C(=O)Nc1nc(-c3ccccc3)cs1)C(=O)N2` (stereo not given), 996 s.

`Cc1nn(C)cc1CN1C[C@@H]2C(=O)N(Cc3ccc4c(c3)OCO4)C(=O)[C@@H]2C1` showed an RP-LC retention time of 601 s. Turning to `O=C(NCc1ccco1)C1CN(C(=O)c2ccc(F)c(F)c2)C1`, the RP-LC retention time worked out at 663 s. Under `CCN(CC)C(=O)c1ccc(-c2nc3cc(NS(=O)(=O)c4ccc(C)cc4)ccc3n2C)cc1` stands 700 s; under `CCc1noc(C2(NC(=O)c3cc(-c4ccccc4)n[nH]3)CCCCC2)n1`, 906 s.

`CCCn1c2ccccc2c2cnn(CC(=O)NCCN(C)Cc3ccccc3)c(=O)c21` gave an RP-LC retention time of 699 s. Under `CC(NC(=O)c1ccccc1)C(=O)N1CCN(c2cc(C(C)C)n3cnnc3n2)CC1` (stereo not given) stands 604 s; under `O=C(Nc1ccc(OCc2nnc(-c3ccccc3)o2)cc1)C1COc2ccccc2O1` (stereo not given), 984 s; under `COc1ccc(N2CC(c3noc(-c4ccc(F)c(F)c4)n3)CC2=O)cc1` (stereo not given), 948 s. As for `CCCN(CC1CCOC1)C(=O)Nc1cccc(Cl)c1` (stereo not given), the figure is 827 s; as for `COc1ccc(-c2nc3cnccn3c2Nc2cccc(C)c2C)cc1OC`, 838 s; as for `CCNc1cc(C)nc(N2CCN(C(=O)C(C)C)CC2)n1`, 598 s. As for `Cc1ccc(S(=O)(=O)CCc2nc3ccccc3n2CC(=O)O)cc1`, the figure is 607 s; as for `CN(CCc1noc(-c2ccc(F)cc2)n1)C(=O)Nc1ccc(F)cc1F`, 874 s; as for `COc1ccccc1CN[C@H]1CCCN[C@H]1c1ccccc1`, 578 s. On to `O=C(Cc1c[nH]c2ccccc12)N1CCC(c2nc(C3CC3)no2)C1` (stereo not given), for which the RP-LC retention time is 764 s. For `O=C(Nc1cnc(-c2cccc(Cl)c2)nc1)c1nccc2ccccc12`, the RP-LC retention time stood at 1370 s. Under `O=C(NCc1ccc(F)cc1)C1CCN(S(=O)(=O)c2cc(-c3noc(C4CC4)n3)cs2)CC1` stands 958 s. Under `COc1ccc(CCC(=O)N2CCC[C@@H]2C(=O)NCCc2csc(C)n2)cc1` stands 667 s; under `CCOC(=O)Cc1c(C(=O)OCC)nnc2c(-c3ccccc3)c(C)nn12`, 1080 s.

As to `CCn1c(-c2ccccc2)cc(C(=O)NC)c1C`, the RP-LC retention time turned out to be 807 s. For `Cc1ccc(C)c(N2CCN(c3ccnc(SCC(=O)Nc4ccc(Cl)cc4)n3)CC2)c1`, the RP-LC retention time stood at 967 s. Under `CN1CCN(Cc2nc(-c3ccc(N(C)Cc4ccccc4)nc3)no2)CC1` stands 638 s; under `CCn1c(=O)c(N2CCN(S(=O)(=O)c3ccc(Cl)s3)CC2)nc2ccncc21`, 739 s. As for `CC1CCN(S(=O)(=O)c2ccc(-c3nnc(C(=O)NCC4CCCO4)o3)cc2)CC1` (stereo not given), the figure is 865 s. Under `CCOC(=O)CCC(=O)Nc1ccc(-c2nnc(N(C)c3ccccc3)s2)cc1` stands 702 s. `CCOc1ccc(NC(=O)C2(C)CCCCC(=O)N2)cc1` (stereo not given) showed an RP-LC retention time of 690 s. In turn, `O=C(Nc1ccccc1)N[C@H]1C[C@H](C(=O)O)Nc2cc(Cl)cc(Cl)c21` yielded an RP-LC retention time of 799 s. Under `CCSc1ccccc1C(=O)NCCCn1cccc1` stands 791 s; under `Cc1cc(C)n(-c2nc(CC(=O)Nc3ccc(N(C)C)cc3)cs2)n1`, 650 s; under `CN(C)S(=O)(=O)c1ccc(-c2nnc(C(=O)NCCC3=CCCCC3)o2)cc1`, 941 s. Under `O=C([C@@H]1C[C@H](Oc2ccccc2)CN1C(=O)C1CCCC1)N1CCCC1` stands 784 s; under `CC(C)C(=O)NC(C)c1nc(-c2ccccc2Cl)no1` (stereo not given), 834 s; under `Cc1ccccc1S(=O)(=O)N1CC[C@@H]2CN(c3cnccn3)[C@@H]2C1`, 738 s.

Compound `O=C(c1ccc2c(c1)OCO2)N1CCCN(c2nnc3ccc(Cl)cn23)CC1` showed an RP-LC retention time of 591 s.

As to `Cc1cc2nn(CC(=O)Nc3ccc(C(C)C)cc3)c(=O)n2c(-c2ccccc2)n1`, the RP-LC retention time was 862 s. Under `Cc1cc(C)c(C)c(S(=O)(=O)Nc2ccc3c(c2)OCO3)c1C` stands 915 s; under `COc1ccc(NC(=O)c2cc3c(s2)CN(C2CCCC2)C3)c(C)c1`, 614 s; under `CC(NC(=O)c1cc2n(n1)CC(C)(C(=O)NC1CCCCC1)N(C)C2=O)c1ccccc1` (stereo not given), 800 s. As for `Cc1cc2nn(CC(=O)N(C)C3CCCCC3)c(=O)n2c(Nc2ccccc2C)n1`, the figure is 1110 s. The compound `CCn1cc(C)c(C(=O)O)c1CC(=O)N1CCCCC1` showed an RP-LC retention time of 694 s. `CSc1ccc(NC(=O)C2CCCN(c3cnc4nc(C)c(C)nc4c3)C2)cc1` (stereo not given) returned an RP-LC retention time of 819 s.

`O=C(N[C@H]1C[C@@H]2C[C@H]1CN2S(=O)(=O)c1ccc2c(c1)CCC2)c1cccs1` yielded an RP-LC retention time of 943 s. Compound `Cc1[nH]nc(-c2c(C)sc(C)c2S(=O)(=O)Nc2ccc(Cl)cc2)c1C` came in with an RP-LC retention time of 1060 s. As for `Cc1oc(-c2ccccc2)nc1Cc1noc(COc2ccccc2)n1`, the figure is 1090 s. Regarding `COC(=O)c1cnc2nc(C)ccc2c1Nc1ccc(C)cc1C`, the RP-LC retention time stood at 699 s. As for `Cc1csc(-c2nnc(Nc3ccc(Oc4ncccc4-c4ccnc(N)n4)cc3)c3ccccc23)c1`, the figure is 731 s.

For the compound `O=C(Nc1ccccc1)N1CCN(c2ncccc2-c2nnc(C3CC3)o2)CC1`, the RP-LC retention time worked out at 750 s. As for `CCc1ccccc1NC(=O)N1CC(n2cnnc2-c2ccccc2)C1`, the figure is 686 s; as for `CCN1CCN(C(=O)CN2C(=O)C3CCCCN3c3ccc(S(=O)(=O)N(CC)CC)cc32)CC1` (stereo not given), 670 s. As for `COc1cccc(-c2n[nH]c3c2C(c2ccc(OC)cc2OC)NC3=O)c1` (stereo not given), the figure is 753 s; as for `CN(C(=O)Cn1ccn2nc(-c3ccc(F)cc3)c(CO)c2c1=O)c1ccccc1`, 924 s. Consider `CC(C)c1csc(-c2csc(S(=O)(=O)Nc3ccc(F)c(F)c3)c2)n1`, for which the RP-LC retention time amounted to 1120 s. Consider `Cc1cc2[nH]c(C(=O)Nc3ccc(F)c(F)c3)c(CN3CCOCC3)c2s1`, for which the RP-LC retention time stood at 740 s. `CC(C)n1cnc2cc(CNC(=O)c3cccs3)ccc21` returned an RP-LC retention time of 608 s.

`CCn1ccc(C(=O)N(CC2CCCO2)c2nc3c(C(C)C)cccc3s2)n1` (stereo not given) had an RP-LC retention time of 1370 s. With `CC(=O)c1ccc(Nc2c(C(=O)N3CCOCC3)cnc3nc(C)ccc23)cc1`, the RP-LC retention time turned out to be 568 s.

With `O=C(N[C@H]1C[C@@H]2C[C@H]1N(C(=O)c1cccc(C(F)(F)F)c1)C2)c1cccs1`, the RP-LC retention time worked out at 839 s. The compound `CCOC(=O)C1=C(C)NC2=C(C(=O)CCC2)C1c1ccc(OC)c(OC)c1OC` (stereo not given) came in with an RP-LC retention time of 727 s. Under `CN(Cc1ccccc1)C(=O)CN1C(=O)CCCc2cc(S(=O)(=O)N3CCCCC3)ccc21` stands 907 s.
